Assay results taken from PubChem BioAssay (NCI).
Several values for one entry are separate records, joined by “and”; a condition that tells them apart may be missing. Identical values can stand only once.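 A five-concentration, 48-hour dose response in 96-well plates underlies each endpoint, interpolated linearly between surrounding concentrations. TGI: concentration producing complete growth inhibition.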

Key:
Test in all cases: NCI tumour cell line growth inhibition, 48 h
UACC-62 melanoma = system: UACC-62 melanoma
CAKI-1 renal = system: CAKI-1 renal
P388 leukemia = system: P388 leukemia
RPMI-8226 leukemia = system: RPMI-8226 leukemia
HCC-2998 colon = system: HCC-2998 colon
MDA-N = system: MDA-N
MCF7 breast = system: MCF7 breast
P388/ADR leukemia = system: P388/ADR leukemia
OVCAR-4 ovarian = system: OVCAR-4 ovarian
SF-268 CNS = system: SF-268 CNS
HOP-92 NSCLC = system: HOP-92 NSCLC
UACC-257 melanoma = system: UACC-257 melanoma

In the case of `Cc1c2cc[n+](C)cc2c(C)c2c1[nH]c1ccccc12`, the TGI (UACC-62 melanoma) is reported as 22.5 µM and 27.4 µM, the TGI (CAKI-1 renal) is reported as 58.8 µM and 27.7 µM and the TGI (P388 leukemia) is reported as 24.5 µM and 22.2 µM. The TGI (RPMI-8226 leukemia) was 88.7 µM and 92 µM, the TGI (HCC-2998 colon) was 12.6 µM and 12.9 µM and the TGI (MDA-N) was 19.6 µM. The TGI (MCF7 breast) was 21.9 µM and 39.5 µM, the TGI (P388/ADR leukemia) was greater than 77.4 µM and the TGI (OVCAR-4 ovarian) was 15 µM and 10.9 µM. For the same compound, the TGI (SF-268 CNS) was 1.87 µM and 1.88 µM, the TGI (HOP-92 NSCLC) was 11 µM and 10.1 µM and the TGI (UACC-257 melanoma) was 37.5 µM and 43.2 µM.
